# Activity calls are given as the source filed them.
# Legend:
# [1] = molecular target: T1, Voltage-gated N-type calcium channel alpha-1B subunit/Amyloid beta A4 precursor protein-binding family A member 1 (Homo sapiens, UniProt Q00975+Q02410); type: protein assay
# [2] = molecular target: T1, Voltage-gated N-type calcium channel alpha-1B subunit/Amyloid beta A4 precursor protein-binding family A member 1; type: protein assay; remark: listed apart in the source
# [3] = molecular target: Eukaryotic translation initiation factor 4E (Mus musculus, UniProt P63073); assay: eIF4E–eIF4G protein interaction inhibitors, dose response, biochemical, TR-FRET (AID 855); type: functional;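 note: potency for disrupting eIF4E binding to eIF4GI seen as loss of FRET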
# [4] = molecular target: T2, Endoribonuclease toxin MazF (Escherichia coli K-12, UniProt P0AE70); assay: fluorescent RNA oligo signal without MazF, dose response, counter-screen for MazEF activator project, biochemical, fluorescence, single-stranded RNase substrate (AID 588502); type: functional
# T2 sequence (P0AE70 whole entry): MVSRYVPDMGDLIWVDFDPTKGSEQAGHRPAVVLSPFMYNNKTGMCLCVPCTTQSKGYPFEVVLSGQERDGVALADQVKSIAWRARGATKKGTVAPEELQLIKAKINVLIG
# [5] = molecular target: T2, Endoribonuclease toxin MazF; assay: MazF toxin RNase activators, dose response, biochemical, fluorescence, single-stranded RNA substrate, uHTS hits (AID 588481); type: functional
# [6] = molecular target: T3, RNA-binding protein pos-1 (Caenorhabditis elegans, UniProt G5EF15); assay: inhibitors of POS-1/mex-3 RNA binding, dose response, biochemical, fluorescence polarization (AID 1964);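 note: purified POS-1 fused to maltose binding protein made in E. coli; potency of compounds blocking POS-1 binding to fluorescent RNA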
# T3 sequence (G5EF15 whole entry): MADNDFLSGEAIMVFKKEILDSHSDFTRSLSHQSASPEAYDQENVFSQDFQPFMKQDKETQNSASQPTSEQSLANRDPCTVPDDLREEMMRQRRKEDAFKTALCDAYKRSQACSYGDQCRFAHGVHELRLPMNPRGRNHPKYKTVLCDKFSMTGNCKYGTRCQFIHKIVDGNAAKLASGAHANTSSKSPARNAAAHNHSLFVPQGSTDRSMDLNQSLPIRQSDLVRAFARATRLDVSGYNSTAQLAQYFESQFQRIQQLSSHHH
# [7] = molecular target: T4, Zinc finger protein mex-5 (Caenorhabditis elegans, UniProt Q9XUB2); assay: MEX-5/TCR-2 RNA interaction inhibitors, dose response, biochemical, C. elegans, fluorescence polarization (AID 1960)
# T4 sequence (Q9XUB2 whole entry): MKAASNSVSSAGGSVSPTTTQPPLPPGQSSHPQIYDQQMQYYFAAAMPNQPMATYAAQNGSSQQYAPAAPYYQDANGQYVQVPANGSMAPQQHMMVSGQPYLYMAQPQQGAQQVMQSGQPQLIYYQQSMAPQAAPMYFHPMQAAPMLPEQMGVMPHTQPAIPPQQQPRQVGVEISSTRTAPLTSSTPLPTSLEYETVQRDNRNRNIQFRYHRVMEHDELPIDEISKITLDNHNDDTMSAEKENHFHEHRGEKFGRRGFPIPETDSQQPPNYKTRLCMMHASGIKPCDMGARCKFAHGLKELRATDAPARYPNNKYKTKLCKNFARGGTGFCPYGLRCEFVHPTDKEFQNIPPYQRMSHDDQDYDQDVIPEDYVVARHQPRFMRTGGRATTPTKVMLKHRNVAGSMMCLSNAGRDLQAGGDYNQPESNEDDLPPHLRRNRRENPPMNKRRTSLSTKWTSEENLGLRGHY
# HEK293 [8] = assay: cells; conditions: Homo sapiens
# HEK293 [9] = assay: cells; conditions: Homo sapiens; remark: listed apart in the source
# [10] = molecular target: Intestinal-type alkaline phosphatase (Mus musculus, UniProt P24822); assay: PubChem AID 488785; type: functional
# [11] = molecular target: T5, Alkaline phosphatase, tissue-nonspecific isozyme (Homo sapiens, UniProt P05186); assay: TNAP enzyme inhibition by screening hits, dose response, selectivity assay for mouse IAP inhibitor project, biochemical, human TNAP, uHTS hits (AID 488906); type: functional
# T5 sequence (P05186 whole entry): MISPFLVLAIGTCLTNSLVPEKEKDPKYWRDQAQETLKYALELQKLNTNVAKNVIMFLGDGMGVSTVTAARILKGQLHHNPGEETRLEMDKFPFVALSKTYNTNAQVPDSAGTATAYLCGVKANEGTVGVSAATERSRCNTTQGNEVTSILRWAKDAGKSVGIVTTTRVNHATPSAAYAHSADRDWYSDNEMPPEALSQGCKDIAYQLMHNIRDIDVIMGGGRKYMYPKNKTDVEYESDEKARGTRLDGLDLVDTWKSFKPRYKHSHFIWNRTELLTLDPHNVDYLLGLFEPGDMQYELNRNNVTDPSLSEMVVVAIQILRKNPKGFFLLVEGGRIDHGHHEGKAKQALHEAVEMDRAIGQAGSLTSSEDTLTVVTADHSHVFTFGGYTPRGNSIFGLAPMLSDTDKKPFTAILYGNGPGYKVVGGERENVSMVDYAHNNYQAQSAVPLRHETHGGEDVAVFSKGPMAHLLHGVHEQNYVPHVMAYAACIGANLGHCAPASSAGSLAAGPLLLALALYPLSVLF
# [12] = molecular target: Intestinal-type alkaline phosphatase (Homo sapiens, UniProt P09923); assay: inhibition of human intestinal alkaline phosphatase – biochemical, dose response (AID 488876); type: functional
# [13] = Luminescence Cell-Based Dose Retest to Confirm Inhibitors of Cancer Stem Cells. [Related pubchem assays (depositor defined):AID2717, AID2721]; type: functional; conditions: Homo sapiens
# [14] = Vero E6 cell cytotoxicity, dose response, cytotoxicity control for non-replicating M. tuberculosis project, secondary assay (AID 492998); type: functional, VeroE6; conditions: Vero C1008
# [15] = HepG2 cell cytotoxicity, dose response, cytotoxicity control for non-replicating M. tuberculosis project (AID 489018); type: functional; conditions: Mycobacterium tuberculosis
# [16] = microbe, parasite or virus in culture; type: functional; conditions: Mycobacterium tuberculosis
# [17] = THP-1 cell cytotoxicity, dose response, cytotoxicity control for non-replicating M. tuberculosis project (AID 489025); type: functional
# cells = type: functional
# [18] = inhibitors of intracellular T. cruzi replication, confirmation, NIH3T3 host cells, beta-gal luminescence (AID 2044); type: functional, cell-based;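 note: intracellular parasites grown in NIH/3T3 mouse fibroblasts as host cells; luminescent beta-galactosidase reporter signal from transgenic T. cruzi replicating inside host cells; inhibitors lower the luminescence signal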
# [19] = molecular target: DNA dC->dU-editing enzyme APOBEC-3A (Homo sapiens, UniProt P31941); assay: Dose Response confirmation of small molecule APOBEC3A DNA Deaminase Inhibitors via a fluorescence-based single-stranded DNA deaminase assay. [Related pubchem assays (depositor defined):AID493011, AID493024]; type: functional
# [20] = molecular target: DNA dC->dU-editing enzyme APOBEC-3G (Homo sapiens, UniProt Q9HC16); type: functional;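 note: Dose-response counterscreen measuring inhibition of APOBEC3G DNA deaminase activity, run while confirming APOBEC3A inhibitors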
# [21] = cytotoxicity in MIN6 insulinoma cells, dose response, cytotoxicity control, cell-based, mouse insulinoma (AID 2122); type: functional;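 note: confirmatory high-throughput counterscreen run to flag cytotoxic compounds; mouse MIN-6 beta cells carrying an insulin promoter eGFP reporter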
# [22] = cytotoxicity toward NIH3T3 fibroblasts, dose response, counter-screen, cell-based, ATP luminescence, mouse fibroblasts (AID 2010); type: functional;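 note: cells exposed to compound for about 90 hours before reading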
# [23] = insulin promoter down-regulators in MIN6 cells, imaging, high-content screening, mouse beta cells (AID 1628); type: functional
# INS1 = assay: beta cell apoptosis inhibitors, cytokine rescue, dose response, luminescence, retest (AID 449756); type: functional, cell-based; conditions: Rattus norvegicus;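 note: cell death triggered by IL-1 beta plus TNF-alpha plus IFN-gamma mixture; protective hits raise ATP signal compared with cytokine alone wells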
# [24] = molecular target: T6, Corticotropin-releasing factor receptor 2/Corticotropin-releasing factor-binding protein (Homo sapiens, UniProt P24387+Q13324); assay: activators of CRF receptor 2 with binding protein – uHTS hits, confirmation (AID 602473); type: functional; conditions: read-out: EC50_Mean
# T6 sequence (Q13324 whole entry): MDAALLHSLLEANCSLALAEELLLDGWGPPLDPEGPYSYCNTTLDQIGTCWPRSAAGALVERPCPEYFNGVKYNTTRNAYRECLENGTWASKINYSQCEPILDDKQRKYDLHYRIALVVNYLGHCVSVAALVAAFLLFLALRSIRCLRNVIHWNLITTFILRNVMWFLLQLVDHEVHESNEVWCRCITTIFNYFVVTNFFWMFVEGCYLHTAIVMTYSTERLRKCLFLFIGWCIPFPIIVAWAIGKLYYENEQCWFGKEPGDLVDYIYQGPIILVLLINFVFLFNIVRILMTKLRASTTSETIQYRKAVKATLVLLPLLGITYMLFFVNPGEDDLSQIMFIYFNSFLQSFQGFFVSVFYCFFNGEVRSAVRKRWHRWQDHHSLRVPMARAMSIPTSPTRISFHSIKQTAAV
# T6 sequence (P24387 whole entry): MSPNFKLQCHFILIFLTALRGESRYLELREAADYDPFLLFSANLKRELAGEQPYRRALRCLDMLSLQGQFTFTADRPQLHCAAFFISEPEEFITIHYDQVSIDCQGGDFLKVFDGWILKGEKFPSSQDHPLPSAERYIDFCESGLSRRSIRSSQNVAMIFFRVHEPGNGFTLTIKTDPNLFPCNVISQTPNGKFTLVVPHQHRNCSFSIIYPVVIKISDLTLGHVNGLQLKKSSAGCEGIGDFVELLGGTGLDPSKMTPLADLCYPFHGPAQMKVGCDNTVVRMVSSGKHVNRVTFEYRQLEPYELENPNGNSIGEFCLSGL
# [25] = inhibitors of clade B AD8 Env fusion, dose response, cell-based, cherry-pick (AID 652062); type: functional;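 note: luciferase signal from cell-cell fusion driven by HIV-1 clade B AD8 Env; potency is for inhibitors of fusion seen as a drop in luminescence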
# [26] = CEM21 lymphoblast cell cytotoxicity, dose response, cytotoxicity control for viral fusion inhibitor project, CellTiter-Glo luminescence, cherry-picked (AID 652042); type: functional, cell-based;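 note: potency for signal decrease meaning cytotoxicity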
# [27] = ZM109 Env clade C HIV-1 fusion inhibitors, dose response, HeLa effector, CEM target cells, luciferase, cherry-pick (AID 652058); type: functional, cell-based
# [28] = control 3'UTR Renilla luciferase suppression, dose response, counter-screen for Shn3 inhibitor project, cell-based, Clone20-Shn3RL, cherry-picked (AID 624133); type: functional
# [29] = Shn3 3'UTR reporter inhibitors, dose response, cell-based, Clone20 osteoblasts, firefly luciferase, cherry-picked (AID 624132); type: functional;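 note: firefly luciferase luminescence from reporter carrying the Shn3 3'UTR in osteoblasts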
# [30] = off-target signal loss in HeLa-CEM21 co-culture – HeLa F-luc CTL cells, cherry-picked, counter-screen for HIV-1 Env fusion inhibitor project, dose response (AID 652040); type: functional, cell-based;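 note: potency for signal decrease marking cytotoxic or nonspecific inhibition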
# [31] = inhibitors of HIV Env-driven cell fusion, dose response, cherry-pick (AID 652057); type: functional, cell-based
# [32] = HepG2 cell cytotoxicity, dose response, cytotoxicity control for Shn3 inhibitor project, CellTiter-Glo, cherry-picked (AID 624134); type: functional, cell-based
# T1 sequence (Q00975 whole entry): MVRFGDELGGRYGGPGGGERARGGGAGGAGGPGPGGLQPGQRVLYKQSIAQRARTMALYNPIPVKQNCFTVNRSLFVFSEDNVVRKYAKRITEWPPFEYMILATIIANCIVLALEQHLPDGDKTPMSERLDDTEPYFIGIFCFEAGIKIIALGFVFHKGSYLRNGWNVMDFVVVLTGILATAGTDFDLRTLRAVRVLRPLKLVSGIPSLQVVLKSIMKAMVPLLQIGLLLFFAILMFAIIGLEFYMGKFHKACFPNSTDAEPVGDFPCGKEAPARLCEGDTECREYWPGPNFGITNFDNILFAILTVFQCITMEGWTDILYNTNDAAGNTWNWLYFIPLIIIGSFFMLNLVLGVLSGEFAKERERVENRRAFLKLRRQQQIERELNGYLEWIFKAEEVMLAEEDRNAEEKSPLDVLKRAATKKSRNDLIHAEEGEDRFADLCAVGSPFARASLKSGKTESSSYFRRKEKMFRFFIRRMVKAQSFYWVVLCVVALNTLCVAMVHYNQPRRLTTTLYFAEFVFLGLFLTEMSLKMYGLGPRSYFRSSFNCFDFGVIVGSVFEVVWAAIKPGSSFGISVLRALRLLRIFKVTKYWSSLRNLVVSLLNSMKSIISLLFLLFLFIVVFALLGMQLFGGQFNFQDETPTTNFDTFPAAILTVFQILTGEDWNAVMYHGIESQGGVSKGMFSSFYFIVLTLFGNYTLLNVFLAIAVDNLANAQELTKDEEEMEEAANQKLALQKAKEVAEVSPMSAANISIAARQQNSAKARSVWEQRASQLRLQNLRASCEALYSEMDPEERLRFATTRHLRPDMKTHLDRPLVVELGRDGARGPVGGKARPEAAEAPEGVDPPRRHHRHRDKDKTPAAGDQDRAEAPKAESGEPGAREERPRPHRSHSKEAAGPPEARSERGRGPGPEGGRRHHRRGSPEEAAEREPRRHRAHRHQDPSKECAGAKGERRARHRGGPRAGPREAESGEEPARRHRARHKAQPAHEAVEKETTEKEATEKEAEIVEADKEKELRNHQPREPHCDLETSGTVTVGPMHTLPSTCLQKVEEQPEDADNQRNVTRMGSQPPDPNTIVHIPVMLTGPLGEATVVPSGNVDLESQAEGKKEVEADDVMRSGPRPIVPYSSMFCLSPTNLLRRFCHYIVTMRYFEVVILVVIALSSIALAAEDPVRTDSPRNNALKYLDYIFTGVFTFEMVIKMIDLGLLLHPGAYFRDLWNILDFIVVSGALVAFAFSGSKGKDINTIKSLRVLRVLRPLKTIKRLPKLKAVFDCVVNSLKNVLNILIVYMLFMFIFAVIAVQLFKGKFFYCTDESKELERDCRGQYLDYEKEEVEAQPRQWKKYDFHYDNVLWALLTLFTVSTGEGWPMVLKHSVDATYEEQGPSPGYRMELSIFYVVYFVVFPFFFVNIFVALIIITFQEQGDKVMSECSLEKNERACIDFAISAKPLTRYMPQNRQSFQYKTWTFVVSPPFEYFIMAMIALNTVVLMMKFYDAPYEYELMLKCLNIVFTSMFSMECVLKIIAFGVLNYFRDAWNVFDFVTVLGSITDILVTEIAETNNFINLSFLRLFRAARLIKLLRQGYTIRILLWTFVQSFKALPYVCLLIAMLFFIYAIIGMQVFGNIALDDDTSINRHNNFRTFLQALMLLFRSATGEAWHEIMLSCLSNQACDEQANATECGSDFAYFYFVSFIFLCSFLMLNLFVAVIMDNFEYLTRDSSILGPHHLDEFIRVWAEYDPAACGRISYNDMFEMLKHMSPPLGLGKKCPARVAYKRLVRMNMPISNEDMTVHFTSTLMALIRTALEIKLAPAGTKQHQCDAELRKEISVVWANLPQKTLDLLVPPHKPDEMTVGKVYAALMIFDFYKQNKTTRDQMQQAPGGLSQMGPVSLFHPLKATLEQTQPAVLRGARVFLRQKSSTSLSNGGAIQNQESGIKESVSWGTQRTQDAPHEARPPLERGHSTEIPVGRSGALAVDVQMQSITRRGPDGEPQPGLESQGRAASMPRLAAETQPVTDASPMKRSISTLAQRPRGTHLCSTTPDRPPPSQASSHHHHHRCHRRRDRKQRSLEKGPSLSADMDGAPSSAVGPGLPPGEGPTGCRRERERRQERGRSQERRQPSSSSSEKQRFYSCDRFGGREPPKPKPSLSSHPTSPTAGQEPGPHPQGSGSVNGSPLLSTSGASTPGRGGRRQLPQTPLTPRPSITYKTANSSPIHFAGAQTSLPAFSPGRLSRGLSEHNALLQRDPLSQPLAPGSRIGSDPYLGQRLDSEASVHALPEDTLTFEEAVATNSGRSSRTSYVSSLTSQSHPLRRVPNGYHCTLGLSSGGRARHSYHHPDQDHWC
# T1 sequence (Q02410 whole entry): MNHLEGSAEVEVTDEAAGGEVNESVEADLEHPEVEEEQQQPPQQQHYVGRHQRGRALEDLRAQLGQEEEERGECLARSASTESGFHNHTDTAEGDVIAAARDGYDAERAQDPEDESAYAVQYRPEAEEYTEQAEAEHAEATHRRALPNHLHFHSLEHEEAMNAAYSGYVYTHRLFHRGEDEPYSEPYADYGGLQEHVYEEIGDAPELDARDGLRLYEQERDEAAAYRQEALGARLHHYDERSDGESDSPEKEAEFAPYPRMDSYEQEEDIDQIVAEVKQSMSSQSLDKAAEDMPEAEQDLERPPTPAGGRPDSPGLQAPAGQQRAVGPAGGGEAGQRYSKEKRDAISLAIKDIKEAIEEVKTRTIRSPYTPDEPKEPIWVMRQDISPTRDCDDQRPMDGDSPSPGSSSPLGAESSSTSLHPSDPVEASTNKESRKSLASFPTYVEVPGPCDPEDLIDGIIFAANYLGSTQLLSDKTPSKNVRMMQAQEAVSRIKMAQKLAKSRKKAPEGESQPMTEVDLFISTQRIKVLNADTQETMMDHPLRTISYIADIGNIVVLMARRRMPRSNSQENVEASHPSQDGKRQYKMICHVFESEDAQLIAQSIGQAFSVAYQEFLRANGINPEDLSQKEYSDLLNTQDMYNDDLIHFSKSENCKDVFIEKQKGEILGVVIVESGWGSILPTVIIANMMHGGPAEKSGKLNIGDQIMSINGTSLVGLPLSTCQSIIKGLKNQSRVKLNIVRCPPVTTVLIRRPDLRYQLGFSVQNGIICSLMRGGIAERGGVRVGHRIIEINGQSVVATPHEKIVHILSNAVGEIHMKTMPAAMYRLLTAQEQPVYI
# Intestinal-type alkaline phosphatase (Mus musculus, UniProt P24822), sequence (P24822 whole entry): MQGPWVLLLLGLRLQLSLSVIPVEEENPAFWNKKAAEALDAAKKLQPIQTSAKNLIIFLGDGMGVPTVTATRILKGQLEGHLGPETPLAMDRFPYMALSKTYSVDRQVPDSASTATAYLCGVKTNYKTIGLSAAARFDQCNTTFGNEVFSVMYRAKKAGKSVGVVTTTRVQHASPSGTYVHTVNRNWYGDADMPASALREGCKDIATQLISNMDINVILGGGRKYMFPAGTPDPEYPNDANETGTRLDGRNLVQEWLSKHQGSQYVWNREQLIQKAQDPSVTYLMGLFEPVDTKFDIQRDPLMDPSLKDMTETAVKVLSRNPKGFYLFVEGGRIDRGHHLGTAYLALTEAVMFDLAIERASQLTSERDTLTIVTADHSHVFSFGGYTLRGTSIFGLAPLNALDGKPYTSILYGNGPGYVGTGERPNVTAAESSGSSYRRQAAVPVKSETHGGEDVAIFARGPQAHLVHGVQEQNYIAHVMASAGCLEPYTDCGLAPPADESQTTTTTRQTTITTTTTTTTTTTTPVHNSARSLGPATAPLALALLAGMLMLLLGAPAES
# Eukaryotic translation initiation factor 4E, sequence (P63073 whole entry): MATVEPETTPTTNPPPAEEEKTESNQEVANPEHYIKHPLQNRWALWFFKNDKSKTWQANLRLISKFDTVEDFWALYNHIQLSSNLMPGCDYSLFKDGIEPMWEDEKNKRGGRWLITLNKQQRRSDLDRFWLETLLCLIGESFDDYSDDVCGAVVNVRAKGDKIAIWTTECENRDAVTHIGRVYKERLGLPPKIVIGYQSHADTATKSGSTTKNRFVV
# Intestinal-type alkaline phosphatase (Homo sapiens, UniProt P09923), sequence (P09923 whole entry): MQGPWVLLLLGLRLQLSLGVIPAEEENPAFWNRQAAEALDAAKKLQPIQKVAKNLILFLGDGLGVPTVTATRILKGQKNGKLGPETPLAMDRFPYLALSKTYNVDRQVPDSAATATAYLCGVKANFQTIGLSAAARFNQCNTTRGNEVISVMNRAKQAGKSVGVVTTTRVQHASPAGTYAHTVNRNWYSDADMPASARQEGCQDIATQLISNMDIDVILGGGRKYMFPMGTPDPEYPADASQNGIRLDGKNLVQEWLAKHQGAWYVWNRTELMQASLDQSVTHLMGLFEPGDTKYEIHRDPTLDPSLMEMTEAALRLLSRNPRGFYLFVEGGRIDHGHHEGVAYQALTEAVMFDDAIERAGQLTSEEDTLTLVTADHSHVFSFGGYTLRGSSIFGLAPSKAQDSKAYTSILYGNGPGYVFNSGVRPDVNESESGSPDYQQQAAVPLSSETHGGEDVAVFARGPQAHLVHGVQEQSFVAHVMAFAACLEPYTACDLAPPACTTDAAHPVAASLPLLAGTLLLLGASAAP
# DNA dC->dU-editing enzyme APOBEC-3A, sequence (P31941 whole entry): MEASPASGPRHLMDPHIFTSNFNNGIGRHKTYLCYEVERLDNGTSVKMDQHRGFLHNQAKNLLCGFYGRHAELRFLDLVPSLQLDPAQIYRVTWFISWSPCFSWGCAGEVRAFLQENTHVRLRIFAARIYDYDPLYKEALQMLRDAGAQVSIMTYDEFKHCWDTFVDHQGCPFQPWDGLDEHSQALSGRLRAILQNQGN
# DNA dC->dU-editing enzyme APOBEC-3G, sequence (Q9HC16 whole entry): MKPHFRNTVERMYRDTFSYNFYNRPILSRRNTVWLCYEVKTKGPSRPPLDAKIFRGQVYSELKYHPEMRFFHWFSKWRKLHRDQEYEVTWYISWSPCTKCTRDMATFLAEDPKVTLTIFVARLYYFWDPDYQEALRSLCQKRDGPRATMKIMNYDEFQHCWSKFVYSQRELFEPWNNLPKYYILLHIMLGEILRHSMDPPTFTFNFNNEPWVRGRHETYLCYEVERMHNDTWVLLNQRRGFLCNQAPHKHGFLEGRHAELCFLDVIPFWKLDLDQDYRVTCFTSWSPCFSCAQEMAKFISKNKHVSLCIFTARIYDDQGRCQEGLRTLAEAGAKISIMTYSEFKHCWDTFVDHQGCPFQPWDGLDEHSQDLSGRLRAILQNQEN
compound,measurement,setting,value
NC(=O)c1ccc2c(O)c(O)c(-c3cc(Cl)c(N)c(Cl)c3)nc2c1,IC50,[1],28.9 µM (active)
same,IC50,[2],14.1 µM (active)
CCNc1ccc(C(=O)OCC(=O)NC(C)c2ccccc2)cc1[N+](=O)[O-] (stereo unspecified),IC50,[3],> 64 µM (inactive)
CCOC(=O)Cn1c2ccc(OC)cc2c2nc3ccccc3nc21,EC50,[4],50.7 µM (inactive)
same,IC50,[1],> 50 µM (inactive)
same,IC50,[2],4.34 µM (active)
same,EC50,[5],> 99 µM (inactive)
same,EC50,[6],0.862 µM (inconclusive)
same,EC50,[7],2.26 µM (active)
CCCCC1(CC(=O)OCC)C(=O)N(c2ccccc2)N(c2ccccc2)C1=O,EC50,HEK293 [8],> 59.6 µM (inactive)
same,EC50,HEK293 [9],> 59.6 µM (inactive)
NS(=O)(=O)c1cc(C(=O)N=Nc2c(O)[nH]c3ccccc23)ccc1Cl,IC50,[10],42.4 µM (active)
same,IC50,[11],> 100 µM (inactive)
same,IC50,[12],> 100 µM (inactive)
O=C(NC1CCCCCCC1)C1CCN(S(=O)(=O)N2CCCC2)CC1,IC50,[3],> 64 µM (inactive)
COc1cc(CNCCc2ccccc2)cc(Cl)c1OCc1ccccc1,AC50,[13],5.32 µM (active)
same,CC50,[14],17.4 µM (active)
same,CC50,[15],15.5 µM (active)
same,CC50,[16],22.9 µM (active)
same,CC50,[17],13.7 µM (active)
same,IC50,cells,13.9 µM (active)
CCCCCOc1ccc(C(=O)CCC(=O)NNC(=O)c2ccncc2)cc1,IC50,[10],14.7 µM (active)
same,IC50,[11],> 100 µM (inactive)
same,IC50,[12],25.6 µM (active)
CCCCCCCC[n+]1c(C)n(-c2ccccc2)c2ccc(NC(C)=O)cc21,EC50,[18],0.768 µM (active)
same,IC50,[19],1.44 µM (active)
same,IC50,[20],2.66 µM (active)
same,IC50,[21],< 0.25 µM (active)
same,EC50,[22],> 60 µM (not active)
same,IC50,[23],< 0.25 µM (active)
same,AC50,INS1,2.41 µM (active)
CCCN(CCC)S(=O)(=O)c1ccc(C(=O)Nc2nnc(-c3cccc(OC)c3)o2)cc1,CC50,[14],3.51 µM (active)
same,CC50,[15],12.4 µM (active)
same,EC50,[24],5.45 µM (active)
same,CC50,[17],1.49 µM (active)
same,IC50,cells,15.1 µM (active)
NC(CCc1ccccc1)c1csc(NC(=O)Nc2ccccc2Oc2ccccc2)n1 (stereo unspecified),AC50,[25],4.98 µM (active)
same,AC50,[26],11.4 µM (active)
same,AC50,[27],3.38 µM (active)
same,AC50,[28],13.6 µM (active)
same,EC50,HEK293 [8],> 59.6 µM (inactive)
same,AC50,[29],7.18 µM (active)
same,AC50,[30],1.65 µM (active)
same,AC50,[31],0.824 µM (active)
same,EC50,HEK293 [9],> 59.6 µM (inactive)
same,AC50,[32],13.5 µM (active)

# From ChEMBL document CHEMBL1201862, “PubChem BioAssay data set” (2004)
